Test results published in patent US9018251B2, “Method for treating brain cancer or reducing temozolomide-resistance of brain cancer cells” (China Medical University, priority 2011, dated 2015).
Where two headings read alike, the source gives them in different places.

What was measured:
[1] = test system: brain cancer cell line DBTRG; experiment: MTT cell viability assay, DBTRG; type: cell-based; details: for viability at 500 µM: Concentration 500 μM; for IC50: 48 h, read-out: IC50 value
Description: (§1) The MTT (3-[4,5-dimethylthiahiazo-2-yl]-2,4-dipheny-tetrazolium bromide) cell viability assay was used to study the mortality effect of temozolomide to various brain cancer cell lines. (See Pauwels et al., J. Virol. Methods, 1988, 20, 309-321 for the MTT cell viability assay, which is incorporated hereinto by reference).
The cell viability rate and mortality rate were calculated based on the absorbance.

MGMT [2] = experiment: MGMT RNA expression (RT-PCR, gel electrophoresis) in 8901; type: cell-based; details: as concentration increased, treated 3 to 48 hours, FIG. 3
Description: (§2) Brain cancer cell lines 8901 and GBM22-TMZ with temozolomide-resistance were cultured in a petri dish with a diameter of 10 cm, respectively. A PBS solution was used to rinse the cells after the cell proliferation reached to 60% by volume of the dish. (Z)-butylidenephthalide or (E)-butylidenephthalide was added to treat the cells for 3 to 48 hours, and then the cells were collected. The total RNA of the cells was extracted and reverse transcribed into cDNA (using 50 micro-mole of […] and 50 pico-mole of random hexamers primer). One unit of ExTaq DNA polymerase, 200 nM dNTP (1 μL), and 2.5 mM of MgCl2 (1 μL) were added, and then 20 mM of MGMT nucleotide primers (1 μL each) and 50 μL of water were added.
The sample was placed into a polymerase chain reaction (PCR) system (GeneAmp PCR System 2400, Perkin Elmer, USA). The condition was set as: denaturing, 94° C., 30 s; annealing, 55° C., 30 s; extension, […]; 30 cycles; and finally 72° C., 10 minutes. Afterwards, the system temperature was decreased to 4° C. to terminate the reaction. The product from the PCR was analysed by a 1.5% gel electrophoresis. The gel was analysed by Fluoro-Chem imaging system (Alpha InnoTech Cooperation) to determine the expression level of MGMT gene.

MGMT [3] = experiment: MGMT protein expression (SDS-PAGE, western blotting) in 8901; type: cell-based; details: as concentration increased, treated 3 to 48 hours, FIG. 4
Description: as §2
(§3) In another aspect, the intracellular proteins of the aforesaid brain cancer cell lines 8901 and GBM22-TMZ were collected. SDS-PAGE and western blotting were used to analyze the expression of the MGMT protein in the brain cancer cell lines.

MGMT [4] = experiment: MGMT protein expression (SDS-PAGE, western blotting) in GBM22-TMZ; type: cell-based, human; details: as concentration increased, FIG. 5
Description: as §2, §3

[5] = test system: brain cancer cell line G5T/VGH; experiment: MTT cell viability assay, G5T/VGH; type: cell-based
Description: as §1

[6] = test system: brain cancer cell line GBM22-TMZ; experiment: MTT cell viability assay, GBM22-TMZ (with CalcuSyn combination index); details: Homo sapiens, 48 h
Description: In a 96-microwell plate, each well was cultured with 3×10^3 cells of brain cancer cell line 8901 which have temozolomide-resistance. The next day, different concentrations of temozolomide (0 to 1200 μM, 200 μL) or the combination of temozolomide and (Z)-butylidenephthalide (0 to 200 μM, 200 μL) were dropped into the well along the interior wall of the plate. Four microwell plates were used for each analysis, and four wells were used for each combination of various drug concentrations. A solvent was placed into the first row as the control group. After the cells were cultured for 2 days, the culture solution was drawn and discarded, and a culture solution containing 500 μg/mL of MTT (200 μL) was added to culture for another 4 hours. The culture solution was drawn and discarded, and 200 μL of DMSO was added, and then the microwell plate spectrometer was used to measure the absorbance of the cells at a wavelength of 570 nm. The cell viability rate and mortality rate and the concentrations of temozolomide that reached the mortality rate of 50% of various brain cancer cell lines (IC50) were calculated based on the absorbance.
In a 96-microwell plate, each well was cultured with 3×10^3 cells of brain cancer cell line 8901 or GBM22-TMZ with temozolomide-resistance. […] The microwell plate spectrometer was then used to measure the absorbance of the cells at a wavelength of 570 nm. […]

[7] = test system: brain cancer cell line GBM22-TMZ; experiment: In vivo survival analysis, glioblastoma orthotopic xenografts; parameters: species or system Mice
Description: A survival analysis was carried out to investigate the antiglioma effect of the combination of (Z)-butylidenephthalide and temozolomide in vivo. Mice with established glioblastoma orthotopic xenografts from brain cancer cell line GBM22-TMZ were randomized to carry out the therapy with indicated temozolomide (66 mg/kg/day; 5 days), (Z)-butylidenephthalide (50 or 100 mg/kg/day; 5 days), or combinations thereof. Observation was recorded until the mice reached a moribund state, and survival results are shown as Kaplan-Meier survival curves.

[8] = test system: brain cancer cell line 8401; experiment: MTT cell viability assay, 8401; type: cell-based
Description: as §1

[9] = test system: brain cancer cell line GBM22-TMZ; experiment: In vivo subcutaneous tumor transplant test; parameters: species or system Balb/c nude mice; details: 28th day
Description: An in vivo test was carried out by a subcutaneous tumor transplant mode to observe the anti-tumor activity of (Z)-butylidenephthalide, temozolomide, or their combination in vivo.
First, 2×10^6 cells of brain cancer cell line GBM22-TMZ with temozolomide-resistance were cultured sterilely and subcutaneously injected to Balb/c nude mice (purchased from the National Laboratory Animal Center, Taiwan) to carry out the in vivo tumor transplant experiment. When the tumor was grown to 100 mm^3 (length×width×width/2), the subcutaneous administration was carried out for treatment. On the contralateral side of the tumor tissue, at a position more than 1.5 cm, (Z)-butylidenephthalide was injected, or temozolomide was orally administrated, once per day consecutively for 5 days. In the treatment group in which (Z)-butylidenephthalide and temozolomide were administrated in combination, (Z)-butylidenephthalide was first subcutaneously administrated (SC), and 2 hours later, temozolomide was orally administrated (PO). After administration on the 5th day, the tumor size and the body weight of the mice were observed continuously for 28 days, and were measured every 3 days. The measurement value of the tumor size on the 28th day was used as the assessment result of the inhibiting activity on tumor growth. The smaller the value, the better the inhibition effect. […] There was a significant difference when P value was less than […]. The results are shown in Table 7, and FIGS. 11A and 11B.

[10] = test system: brain cancer cell line 8901; experiment: MTT cell viability assay, 8901 (with CalcuSyn combination index); type: cell-based; details: for IC50: 48 h, single agent, cultured 2 days, MTT
Description: as §1

[11] = read-out: Viability rate of DBTRG(%)
[12] = 48 h, single agent, cultured 2 days, MTT

CCC/C=C1/OC(=O)c2ccccc21 [(E)-butylidenephthalide, reference compound]
viability at 500 µM [1, 11]: 88%
viability at 1500 µM ([1]; Concentration 1500 μM, read-out: Viability rate of DBTRG(%)): 81%
viability at 2500 µM ([1]; Concentration 2500 μM, read-out: Viability rate of DBTRG(%)): 70%
killing of brain cancer cells ([1]; DBTRG, high dosage of 2500 μM): cannot kill brain cancer cells effectively
expression of RNA of MGMT (MGMT [2]): no significant changes
expression of proteins of MGMT (MGMT [3]): no significant changes

CCC/C=C1\OC(=O)c2ccccc21 [(Z)-butylidenephthalide]
expression of proteins of MGMT (MGMT [4]): reduced
IC50 [1]: ~250 µM
viability at 125 µM ([1]; Concentration 125 μM, read-out: Viability rate of DBTRG(%)): 80%
viability at 250 µM ([1]; Concentration 250 μM, read-out: Viability rate of DBTRG(%)): 58%
viability at 500 µM [1, 11]: 30%
growth inhibition of brain cancer cell line ([1]; DBTRG, 0 to 400 μM, FIG. 10): effectively inhibit the growth
expression of RNA of MGMT (MGMT [2]): reduced
growth inhibition of brain cancer cell line ([5]; 0 to 400 μM, FIG. 10): effectively inhibit the growth
IC50 [6]: 451 µM
Survival rate ([7]; (Z)-butylidenephthalide (50 mg/kg), Day 0): 100%
Survival rate ([7]; (Z)-butylidenephthalide (50 mg/kg), Day 5): 100%
Survival rate ([7]; (Z)-butylidenephthalide (50 mg/kg), Day 8): 100%
Survival rate ([7]; (Z)-butylidenephthalide (50 mg/kg), Day 11): 100%
Survival rate ([7]; (Z)-butylidenephthalide (50 mg/kg), Day 14): 100%
Survival rate ([7]; (Z)-butylidenephthalide (50 mg/kg), Day 18): 100%
Survival rate ([7]; (Z)-butylidenephthalide (50 mg/kg), Day 21): 66%
Survival rate ([7]; (Z)-butylidenephthalide (50 mg/kg), Day 28): 0%
Survival rate ([7]; (Z)-butylidenephthalide (50 mg/kg), Day 30): 0%
Survival rate ([7]; (Z)-butylidenephthalide (100 mg/kg), Day 0): 100%
Survival rate ([7]; (Z)-butylidenephthalide (100 mg/kg), Day 5): 100%
Survival rate ([7]; (Z)-butylidenephthalide (100 mg/kg), Day 8): 100%
Survival rate ([7]; (Z)-butylidenephthalide (100 mg/kg), Day 11): 100%
Survival rate ([7]; (Z)-butylidenephthalide (100 mg/kg), Day 14): 100%
Survival rate ([7]; (Z)-butylidenephthalide (100 mg/kg), Day 18): 100%
Survival rate ([7]; (Z)-butylidenephthalide (100 mg/kg), Day 21): 66%
Survival rate ([7]; (Z)-butylidenephthalide (100 mg/kg), Day 28): 0%
Survival rate ([7]; (Z)-butylidenephthalide (100 mg/kg), Day 30): 0%
growth inhibition of brain cancer cell line ([8]; 0 to 400 μM, FIG. 10): effectively inhibit the growth
Relative tumor size (fold) ([9]; SC consecutively for 5 days, 50 mg/kg/day): 2.7 fold
Relative tumor size (fold) ([9]; SC consecutively for 5 days, 100 mg/kg/day): 2.6 fold
expression of proteins of MGMT (MGMT [3]): reduced
growth inhibition of brain cancer cell line ([10]; 0 to 400 μM, FIG. 10): effectively inhibit the growth
IC50 [10]: 219 µM

Cn1nnc2c(C(N)=O)ncn2c1=O [temozolomide]
IC50 ([1]; DBTRG, single agent, cultured 2 days, MTT): 1660 µM
IC50 [5, 12]: 1660 µM
IC50 [6]: > 3200 µM
Survival rate ([7]; temozolomide (66 mg/kg), Day 0): 100%
Survival rate ([7]; temozolomide (66 mg/kg), Day 5): 100%
Survival rate ([7]; temozolomide (66 mg/kg), Day 8): 100%
Survival rate ([7]; temozolomide (66 mg/kg), Day 11): 66%
Survival rate ([7]; temozolomide (66 mg/kg), Day 14): 66%
Survival rate ([7]; temozolomide (66 mg/kg), Day 18): 66%
Survival rate ([7]; temozolomide (66 mg/kg), Day 21): 33%
Survival rate ([7]; temozolomide (66 mg/kg), Day 28): 0%
Survival rate ([7]; temozolomide (66 mg/kg), Day 30): 0%
IC50 [8, 12]: 831 µM
Relative tumor size (fold) ([9]; PO consecutively for 5 days, 66 mg/kg/day): 4.3 fold
IC50 [10]: 1200 µM
